This is an account of results in article PMC10472371, “Discovery of E2730, a novel selective uncompetitive GAT1 inhibitor, as a candidate for anti‐seizure medication” (Epilepsia Open, 2023).

One assay has as its target T1, hGAT1 (Homo sapiens, UniProt P30531).
T1 construct: expressed in transfected cells; host or cells: HEK293
As to the kind of experiment: [3H]GABA uptake in hGAT1 stably expressing HEK293 cells. The assay is classed as cell-based. To be noted: 50 μM [3H]GABA. The procedure:
HEK293 cells stably expressing human GAT1 (hGAT1), GAT2 (hGAT2), GAT3 (hGAT3), or betaine/GABA transporter 1 (hBGT‐1) were plated onto 96‐well microtiter plates at a density of 4.0 × 10^4 cells/well in Dulbecco's Modified Eagle's Medium (DMEM, containing 10% fetal bovine serum, 100 units/mL penicillin, 100 μg/mL streptomycin, 1% non‐essential amino acid solution, and 25 mM HEPES) and incubated overnight at 37°C in a 5% CO2 atmosphere. After washing the cells with Hanks’ balanced salt solution (HBSS, containing 140 mg/L CaCl2, 100 mg/L MgCl2, 20 mM HEPES, and 10 mM NaOH), E2730 (0.0128–1000 μM) was added to the plate. Following the addition of 50 μM [^3H]GABA, cells were incubated for 5 minutes at 37°C in a 5% CO2 atmosphere and then washed with cold HBSS. Washed cells were incubated in a scintillator for 1 hour at room temperature, followed by radioactivity measurements using a liquid scintillation counter.

Assay [1] has as its system 6 Hz-44 mA psychomotor seizure mice. As to the kind of experiment: Pharmaco-resistant 6 Hz-44 mA psychomotor seizures in mice. The assay is classed as in vivo, mouse. To be noted: Mus musculus; oral, 1 hour before electrostimulation, ddY mice; read-out: ED50 (95% CI), 6 Hz-44 mA psychomotor seizures. The procedure: Psychomotor seizures were stimulated by applying currents (44 mA, 6 Hz, 0.2 millisecond rectangular pulse width, 3‐second duration each) via a corneal electrode (SEN‐7203; Nihon Kohden). E2730 (5–50 mg/kg), levetiracetam (Tokyo Chemical Industry; 20–200 mg/kg), or vehicle was orally administered to ddY mice (male, 5 weeks old; Japan SLC Inc.) 1 hour before electrostimulation. […] Behavioral seizures observed in mice were classified into the following four types: stun, forelimb clonus, twitching of the vibrissae, and Straub‐tail.

Assay [2] concerns the target T2, hGABAAR (containing α1, β3, and γ2 subunits) (Homo sapiens, UniProt P14867+P18507+P28472).
T2 construct: expressed in transfected cells; host or cells: HEK-293
The assay can be described thus: GABA-induced current in hGABAAR-expressing HEK-293 cells, whole-cell patch-clamp. The assay is classed as cell-based. To be noted: up to 100 μM. The protocol:
Data represent the mean ± SEM of 3 independent experiments. Control response is GABA (13 μM)-induced current amplitude. […] Cells in voltage clamp were maintained at -80 mV throughout the experiments following the voltage protocol.
On the technique in general: Patch clamp records ionic current or voltage across a cell membrane.

For assay [3], the target named is T3, human brain synaptosomal membranes (Homo sapiens, UniProt P30531).
T3 construct: from tissue; host or cells: human cerebral cortex; synaptosomal membranes
T3 sequence (P30531 whole entry): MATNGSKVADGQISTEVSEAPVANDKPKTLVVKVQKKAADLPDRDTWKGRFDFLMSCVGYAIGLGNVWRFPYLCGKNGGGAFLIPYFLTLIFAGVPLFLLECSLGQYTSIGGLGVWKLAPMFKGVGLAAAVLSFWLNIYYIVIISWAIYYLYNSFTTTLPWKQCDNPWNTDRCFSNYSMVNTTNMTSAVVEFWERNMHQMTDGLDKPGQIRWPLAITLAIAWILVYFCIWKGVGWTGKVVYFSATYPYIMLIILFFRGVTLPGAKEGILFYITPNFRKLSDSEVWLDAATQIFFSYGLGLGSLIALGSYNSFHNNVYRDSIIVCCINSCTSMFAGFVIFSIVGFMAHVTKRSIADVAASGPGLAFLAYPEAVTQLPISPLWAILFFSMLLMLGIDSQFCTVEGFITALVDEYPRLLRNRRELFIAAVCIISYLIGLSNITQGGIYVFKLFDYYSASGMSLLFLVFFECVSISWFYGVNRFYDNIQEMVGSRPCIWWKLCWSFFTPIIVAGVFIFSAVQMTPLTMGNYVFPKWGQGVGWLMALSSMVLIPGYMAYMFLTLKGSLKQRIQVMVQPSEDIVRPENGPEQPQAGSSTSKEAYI
As to the kind of experiment: Saturation binding of [3H]E2730 in human brain synaptosomal membranes. The procedure:
Synaptosomal membranes were prepared using the whole brain without cerebellum, brainstem, or olfactory bulb from Sprague Dawley rats (male, 7 weeks old) or human cerebral cortex based on Fuks et al.[10] and Hanada et al.[11] Synaptosomal membranes (0.4 mg protein/tube) were incubated with 9.8–5000 nM [^3H]E2730 for 120 minutes at 4°C. Non‐specific binding was defined as the residual binding observed in the presence of 1 mM unlabeled E2730. […] The filters were washed three times with ice‐cold 50 mM Tris–HCl buffer (pH 7.4) and incubated overnight in a scintillator (PerkinElmer), then the radioactivity was measured by a liquid scintillation counter (PerkinElmer).

The target in another assay is T4, hNav1.2 (Homo sapiens, UniProt Q99250).
T4 construct: expressed in transfected cells; host or cells: CHO
T4 sequence (Q99250 whole entry): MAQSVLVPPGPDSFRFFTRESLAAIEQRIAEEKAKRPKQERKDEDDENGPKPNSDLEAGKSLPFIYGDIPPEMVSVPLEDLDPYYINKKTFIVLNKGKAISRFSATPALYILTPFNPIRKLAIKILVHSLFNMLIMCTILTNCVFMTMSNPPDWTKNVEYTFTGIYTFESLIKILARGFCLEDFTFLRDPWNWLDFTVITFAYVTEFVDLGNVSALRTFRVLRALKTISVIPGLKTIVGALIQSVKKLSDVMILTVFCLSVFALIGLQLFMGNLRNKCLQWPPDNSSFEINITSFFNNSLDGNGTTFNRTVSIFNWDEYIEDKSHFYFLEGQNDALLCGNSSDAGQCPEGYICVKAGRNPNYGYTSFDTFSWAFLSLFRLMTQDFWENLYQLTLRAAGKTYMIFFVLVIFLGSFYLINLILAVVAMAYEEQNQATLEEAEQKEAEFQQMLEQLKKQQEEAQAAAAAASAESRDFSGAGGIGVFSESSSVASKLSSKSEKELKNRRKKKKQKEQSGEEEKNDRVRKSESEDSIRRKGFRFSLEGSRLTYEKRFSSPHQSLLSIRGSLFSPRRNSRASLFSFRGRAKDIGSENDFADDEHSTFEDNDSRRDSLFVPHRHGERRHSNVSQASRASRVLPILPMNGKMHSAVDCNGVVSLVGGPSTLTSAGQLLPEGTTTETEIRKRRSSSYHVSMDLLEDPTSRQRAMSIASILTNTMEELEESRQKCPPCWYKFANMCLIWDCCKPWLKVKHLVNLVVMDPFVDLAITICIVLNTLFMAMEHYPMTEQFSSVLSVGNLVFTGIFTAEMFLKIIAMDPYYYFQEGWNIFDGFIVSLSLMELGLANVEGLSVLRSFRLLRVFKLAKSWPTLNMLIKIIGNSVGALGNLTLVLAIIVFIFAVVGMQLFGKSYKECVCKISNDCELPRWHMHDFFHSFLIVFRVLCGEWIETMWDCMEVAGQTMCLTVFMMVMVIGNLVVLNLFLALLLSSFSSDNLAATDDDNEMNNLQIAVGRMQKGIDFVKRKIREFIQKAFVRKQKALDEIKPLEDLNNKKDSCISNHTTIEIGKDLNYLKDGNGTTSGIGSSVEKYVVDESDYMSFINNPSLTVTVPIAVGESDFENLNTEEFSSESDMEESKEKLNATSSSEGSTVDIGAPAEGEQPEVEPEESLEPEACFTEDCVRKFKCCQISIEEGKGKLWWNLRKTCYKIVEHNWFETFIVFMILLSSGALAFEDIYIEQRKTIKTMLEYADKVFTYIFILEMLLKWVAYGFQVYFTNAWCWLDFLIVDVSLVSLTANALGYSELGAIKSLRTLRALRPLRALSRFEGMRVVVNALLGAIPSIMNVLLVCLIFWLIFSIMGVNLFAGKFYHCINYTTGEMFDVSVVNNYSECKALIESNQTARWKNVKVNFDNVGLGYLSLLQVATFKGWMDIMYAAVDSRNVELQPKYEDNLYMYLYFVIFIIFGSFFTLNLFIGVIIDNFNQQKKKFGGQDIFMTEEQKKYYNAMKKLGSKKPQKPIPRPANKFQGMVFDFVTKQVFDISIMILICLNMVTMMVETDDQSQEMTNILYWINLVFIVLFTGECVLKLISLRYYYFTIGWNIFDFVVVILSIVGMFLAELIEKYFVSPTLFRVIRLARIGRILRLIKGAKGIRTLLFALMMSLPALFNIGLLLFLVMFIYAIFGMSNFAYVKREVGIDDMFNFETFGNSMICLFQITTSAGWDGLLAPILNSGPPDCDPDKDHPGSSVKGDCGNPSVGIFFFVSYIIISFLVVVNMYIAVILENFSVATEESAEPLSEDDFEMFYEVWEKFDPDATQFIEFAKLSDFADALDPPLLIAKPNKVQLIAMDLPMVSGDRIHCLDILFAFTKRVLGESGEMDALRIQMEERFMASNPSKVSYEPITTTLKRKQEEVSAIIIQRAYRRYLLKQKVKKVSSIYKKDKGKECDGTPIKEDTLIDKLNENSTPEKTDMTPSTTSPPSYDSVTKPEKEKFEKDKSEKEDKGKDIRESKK
The assay can be described thus: Veratridine-induced hNav1.2 activation in CHO cells, membrane potential assay. The assay is classed as cell-based. To be noted: up to 100 μM, veratridine 50 μM. The procedure:
Data represent the mean ± SEM of three independent experiments. Effects of E2730 and desipramine (Sigma-Aldrich, MO) on hNav1.2 activity were evaluated in CHO cells stably expressing hNav1.2 using a fluorescent-based membrane potential assay (Molecular Devices, CA). Activation of hNav1.2 was induced by veratridine (50 μM) and the change of fluorescence (excitation wavelength, 480 nm; emission wavelength, 540 nm) was recorded using Fluorescence Drug Screening System 6000 (Hamamatsu Photonics, Japan).

The subject of the next assay is amygdala kindling rats. The assay can be described thus: Amygdala kindling in rats. The assay is classed as in vivo, rat. The text has this: A tripolar electrode was implanted into the basolateral amygdala of Wistar‐Kyoto rats (male, 7 weeks old; Charles River Laboratories Japan, Japan). After at least 5 days of recovery, the amygdala was stimulated using an electronic stimulator at currents starting at 0.04 mA (50 Hz, 1 millisecond monophasic square‐wave pulses, 1‐second duration each) then increasing by 25% to a 30‐second duration until the after‐discharge threshold (ADT) was attained. ADT was defined as the current at which abnormal electroencephalogram and at least Racine's stage‐1 seizure behavior were observed. In the Racine's stage, seizure severity was classified as: 1, mouth and facial movements; 2, head nodding; 3, forelimb clonus; 4, rearing; 5, rearing and falling. From the next day onwards, electrical stimulation at the previously determined ADT was performed once daily in each rat. The rats showing ≥3 consecutive Racine stage‐5 seizures were deemed epileptic and used for drug evaluation. The pre‐ADT (i.e. baseline) seizure threshold of each rat was established prior to drug administration. After >1 hour following the determination of pre‐ADT seizure threshold, E2730 (5–50 mg/kg), levetiracetam (25 mg/kg), or vehicle was orally administered to the rats. One hour after the administration, the post‐ADT seizure threshold of each rat was ascertained, and the ratios of post‐ADT to pre‐ADT readings were analyzed.

Assay [4] deals with brain synaptosomal membranes of GAT1-deficient mice. As to the kind of experiment: [3H]E2730 binding in GAT1-deficient mouse brain. To be noted: 200 nM [3H]E2730. The procedure: Synaptosomal membrane extract was prepared from homozygous γ‐aminobutyric acid (GABA) transporter 1 (GAT1) KO (Homo), heterozygous GAT1 KO (Hetero), and the littermate wild‐type (WT) mice (male, 10 weeks old) using the same approach as described above. Synaptosomal membrane extract (0.4 mg protein/tube) was incubated with 200 nM [^3H]E2730 for 120 minutes at 4°C. Non‐specific binding was defined as the residual binding observed in the presence of 1 mM unlabeled E2730. The radioactivity of the synaptosome‐bound radioligand was measured in the same way as described above.

The structures appear in SMILES notation. Entries after “also recorded” stand apart in the source; their conditions may differ.

T2 sequence (P14867 28-456): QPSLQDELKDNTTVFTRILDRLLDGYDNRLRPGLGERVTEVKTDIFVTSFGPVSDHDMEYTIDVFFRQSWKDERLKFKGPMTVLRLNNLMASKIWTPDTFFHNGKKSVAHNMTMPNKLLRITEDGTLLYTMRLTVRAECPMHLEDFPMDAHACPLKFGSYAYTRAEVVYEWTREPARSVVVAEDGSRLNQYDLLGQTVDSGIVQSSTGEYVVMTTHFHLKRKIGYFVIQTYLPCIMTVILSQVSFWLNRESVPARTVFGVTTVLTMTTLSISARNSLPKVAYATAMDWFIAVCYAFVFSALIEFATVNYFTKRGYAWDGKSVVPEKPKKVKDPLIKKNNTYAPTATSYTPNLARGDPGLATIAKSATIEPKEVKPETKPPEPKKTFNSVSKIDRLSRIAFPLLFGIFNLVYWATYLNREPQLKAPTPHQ
T2 sequence (P28472 26-473): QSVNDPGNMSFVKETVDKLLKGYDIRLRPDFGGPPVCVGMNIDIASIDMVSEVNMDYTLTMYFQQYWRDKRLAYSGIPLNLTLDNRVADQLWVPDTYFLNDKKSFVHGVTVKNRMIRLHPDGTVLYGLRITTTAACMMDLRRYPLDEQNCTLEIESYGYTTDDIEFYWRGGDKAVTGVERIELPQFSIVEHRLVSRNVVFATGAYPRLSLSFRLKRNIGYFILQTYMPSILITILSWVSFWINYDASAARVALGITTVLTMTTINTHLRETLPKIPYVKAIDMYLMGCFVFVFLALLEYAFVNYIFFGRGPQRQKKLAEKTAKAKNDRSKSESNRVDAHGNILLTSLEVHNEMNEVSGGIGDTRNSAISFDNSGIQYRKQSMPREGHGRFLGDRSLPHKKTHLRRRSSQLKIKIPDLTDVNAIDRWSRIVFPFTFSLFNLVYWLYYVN
T2 sequence (P18507 40-475): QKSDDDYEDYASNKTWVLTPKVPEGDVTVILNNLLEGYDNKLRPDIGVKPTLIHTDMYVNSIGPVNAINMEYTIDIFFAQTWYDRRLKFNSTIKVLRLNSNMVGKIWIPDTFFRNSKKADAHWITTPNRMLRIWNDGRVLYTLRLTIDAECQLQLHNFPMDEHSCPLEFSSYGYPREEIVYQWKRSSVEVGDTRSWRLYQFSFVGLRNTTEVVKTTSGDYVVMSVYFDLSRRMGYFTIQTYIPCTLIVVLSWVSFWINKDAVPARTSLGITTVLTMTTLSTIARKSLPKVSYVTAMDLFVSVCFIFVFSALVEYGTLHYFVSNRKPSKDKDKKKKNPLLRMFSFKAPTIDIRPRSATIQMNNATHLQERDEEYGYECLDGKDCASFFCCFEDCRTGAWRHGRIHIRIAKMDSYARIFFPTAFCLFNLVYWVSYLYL
T1 sequence (P30531 whole entry): as the sequence (P30531 whole entry) above

The IC50 is the concentration at which inhibition is half-maximal. Higher therefore signals weaker potency. As a reminder, the ED50 is the midpoint of the dose-response relation. By Kd is commonly meant a measure of binding affinity in units of concentration. Lower therefore signals a tighter complex. `NS(=O)(=O)N[C@H]1c2c(F)cc(F)cc2CC1(F)F` [E2730] had an IC50 at hGAT1 of 1100 nM. In addition, in assay [1], the ED50 came out at 17 mg/kg. For the same compound, the “effect on GABA-induced current” value in assay [2] was “did not directly affect”. The Bmax in assay [3] is 2503 fmol/mg protein. For the same compound, the Kd in assay [3] stood at 710 nM. Also, the “effect on hNav1.2 activation” value on hNav1.2 is listed as “did not inhibit; also recorded: did not directly affect”. Besides, the post-ADT/pre-ADT ratio with amygdala kindling rats (E2730 10 mg/kg oral, 1 hour after administration) is given as 129%; in the assay on amygdala kindling rats (E2730 20 mg/kg oral), 159%; in the assay on amygdala kindling rats (E2730 50 mg/kg oral), 191%. Also, the “Minimum effective dose, amygdala kindling (rat)” value with amygdala kindling rats (oral, footnote a: minimum effective dose) is recorded as 10 mg/kg. The “proportion of bound [3H]E2730 relative to WT mice” value in assay [4] (heterozygous GAT1 KO (Hetero) mice) was 54.0%; in assay [4] (homozygous GAT1 KO (Homo) mice), 8.0%.
